# According to patent US12478677B2, “Tunable luminescent organic salts for enhanced imaging and photodynamic therapy” (BOARD OF TRUSTEES OF MICHIGAN STATE UNIVERSITY, priority 2017, dated 2025):
# Where two headings read alike, the source gives them in different places.
# Assays:
# [1] = system: A549 cells; experiment: Viability studies (trypan blue staining and cell counting) with or without IR excitation; type: cell-based, human; conditions: for IC50: linear regression analysis; for Toxicity in words, dark and light: with or without IR (850 nm) excitation; for Concentration at which still non-toxic: cells
# Experimental: The cell lines human lung carcinoma (A549), metastatic human melanoma (WM1158) and Vemurafenib-resistant melanoma (Sk-Mel-28-Vem^R) are used. Sk-Mel-28-Vem^R is generated by culturing a parental melanoma cell lines in the presence of 2 μM Vemurafenib for 2 months. Acquired Vemurafenib resistance is defined by >1 log change in IC50 between nonresistant and resistant cell lines. Resistance is maintained through media supplementation with 2 μM Vemurafenib, which is changed every 48 hours. All cells are cultured in DMEM without pyruvate with 10% heat inactivated fetal bovine serum supplemented with glutamine and penicillin/streptomycin, and incubated in 37° C. with 5% CO2.
# A549 and WM1158 cells are seeded at a density of 50,000 cells per well in 6-well tissue culture plates. After 24 hours of incubation, media is aspirated and replaced with media containing luminescent dyes at indicated concentrations. Each well is irradiated with an 850 nm LED lamp with an illumination rate of 526 mW/cm^2 for an hour in the incubator, and control cells are left in a dark incubator without irradiation. For studies with Cy7, a 740 nm LED lamp is used instead of an 850 nm, but with a similar illumination flux. Immediately after irradiation, the media is replenished with fresh dye-laced media and allowed to incubate for another 24 hours. […] Viable cell number is determined at 24 and 96 hours using trypan blue staining and a Nexcelom Cellometer Auto T4 cell counter. All assays are done with 3 biological replicates. The fold change in cell proliferation over days of treatment was calculated using the following equation.
# [2] = Nanoparticle aggregation size from SEM images; type: physicochemical; conditions: no observable precipitation
# From the text: FIG. 6. is a graph showing exemplary nanoparticle aggregation size distribution measured from SEM images (inset, scale bar=100 nm) of CyTPFB. Average aggregate size is 5.6±1.8 nm with no observable precipitation. […] This is achieved by cation-anion pairs of luminescent organic salts that can be modulated to be either non-toxic for enhanced imaging, or phototoxic for improved PDT. […] IR polymethine cyanine dyes, which have been used as effective theranostics are described. […] This is thought to occur through a mechanism mitigated by tumor vascularization, increased retention in cancer cells, and mitochondrial depolarization. Once in the cell, they accumulate in the mitochondria and lysosomes, where irradiation induces generation of cytotoxic oxygen species. A strategy is described for preventing or inhibiting salt dissociation in cells: aggregates are formed via introduction of the salt into an aqueous media by a solvent vehicle, forming particles with diameters of about 5 nm in size with no precipitation observed. […] This is confirmed by high resolution mass spectrometry, electron microscopy, and UV-Vis spectroscopy. […] Normalized absorption data are sown in FIGS. 7A, 7B, and 7C. This is likely due to steric effects, where if the counterion radius is too small it is not able to protect the nanoparticle stability. […]
# [3] = system: A549 cells; experiment: Luminescent imaging of cells; type: cell-based, human
# Experimental: Images are obtained using a Leica DMi8 microscope with a PE4000 LED light source, DFC9000GT camera, and LAS X imaging system. A549 cells are seeded in 3 cm tissue culture plates at a density of 50,000 cells per well in DMEM media containing luminescent organic salts at indicated concentrations. The cells incubate for 2 days at 37° C. with 5% CO2 until the day of imaging. For live cell imaging, the media is aspirated and replaced with fresh dye-free media to reduce background noise. For fixed cell imaging, cells are grown on 0.5 mm coverslips within 3 cm plates. The media is aspirated and the cells are washed with phosphate buffered saline (PBS) before being submerged in cold methanol and incubated at −20° C. for 15 minutes. The cells are then washed with PBS 5 times, and the coverslips are then mounted to slides using DAPI with Fluoromount-G.
smiles,measurement,setting,value
CCN1C(=CC=C2CCCC(C=CC3=[N+](CC)c4ccc5ccccc5c4C3(C)C)=C2Cl)C(C)(C)c2c1ccc1ccccc21.Fc1c(F)c(F)c([B-](c2c(F)c(F)c(F)c(F)c2F)(c2c(F)c(F)c(F)c(F)c2F)c2c(F)c(F)c(F)c(F)c2F)c(F)c1F [CyTPFB],IC50,"[1]; A549 cells, 850 nm irradiation, read-out: IC50 850 nm",11 µM
same,"Phototoxicity with IR excitation, in words","[1]; A549 cells, IR (850 nm) excitation",non phototoxic to orders of magnitude higher concentrations
same,IC50,"[1]; A549 cells, dark, no irradiation, read-out: IC50 Dark",126 µM
same,Fold concentration relative to CyPF6 at which still non-toxic,"[1]; A549 cells, listed as Cy^+ paired with TPFB^−",greater than 75 fold
same,"Toxicity in words, dark and light",[1]; A549 cells,non-toxic
same,"Toxicity in words, dark and light","[1]; A549 cells, listed as Cy^+ paired with TPFB",not toxic to cells in the dark and in the light
same,"Toxicity in the dark, in words","[1]; A549 cells, without IR excitation",deactivates the dark cellular toxicity
same,Concentration at which still non-toxic,[1],20 µM
same,Concentration at which still non-toxic,[1]; listed as Cy^+ paired with TPFB^−,126 µM
same,Average aggregate size,[2],5.6±1.8 nm
same,"Cellular localization versus concentration in media, in words",[3],localize inside cells proportionally to the initial introduced concentration in the cellular media
